The values that follow come from ChEMBL document CHEMBL1125637, “Benzocycloalkyl amines as novel C-termini for HIV protease inhibitors” (J Med Chem, 1991).

This experiment has as its target Human immunodeficiency virus type 1 protease (Human immunodeficiency virus 1, UniProt Q72874). Kind of experiment: Inhibition of HIV protease. Format: functional.

As usually defined, the IC50 is the midpoint of a concentration-inhibition curve. A low value points to greater potency.

As to `CC(C)(C)OC(=O)N[C@@H](Cc1ccccc1)[C@@H](O)C[C@@H](Cc1ccccc1)C(=O)NC1c2ccccc2C[C@H]1C(N)=O` (some centres not stated), 1.8 nM corresponded to half-maximal inhibition (IC50).

As to `CC(C)(C)OC(=O)N[C@@H](Cc1ccccc1)[C@@H](O)C[C@@H](Cc1ccccc1)C(=O)N[C@H]1CCc2ccccc21`, the IC50 came to 21 nM.

Compound `CC(C)(C)OC(=O)N[C@@H](Cc1ccccc1)[C@@H](O)C[C@@H](Cc1ccccc1)C(=O)NC1CCCc2ccccc21` (some centres not stated) yielded an IC50 of 16 nM.

`CC(C)(C)OC(=O)N[C@@H](Cc1ccccc1)[C@@H](O)C[C@@H](Cc1ccccc1)C(=O)NC1c2ccccc2[C@@H](N)[C@H]1O` (some centres not stated): half-maximal inhibition (IC50) required 1.9 nM.

As to `CC(C)(C)OC(=O)N[C@@H](Cc1ccccc1)[C@@H](O)C[C@@H](Cc1ccccc1)C(=O)NC1Cc2ccccc21` (some centres not stated), half-maximal inhibition (IC50) was put at 22 nM.

With `CC(C)(C)OC(=O)N[C@@H](Cc1ccccc1)[C@@H](O)C[C@@H](Cc1ccccc1)C(=O)N[C@H]1c2ccccc2C[C@H]1O`, the IC50 amounted to 0.3 nM.

The compound `CC(C)(C)OC(=O)N[C@@H](Cc1ccccc1)[C@@H](O)C[C@@H](Cc1ccccc1)C(=O)N[C@@H]1CCc2ccccc21` came in with a half-maximal inhibitory concentration (IC50) of 19 nM.

Consider `CC(C)(C)OC(=O)N[C@@H](Cc1ccccc1)[C@@H](O)C[C@@H](Cc1ccccc1)C(=O)N[C@H]1c2ccccc2[C@@H](O)[C@H]1O`, for which the IC50 was 0.1 nM.

`CC(C)(C)OC(=O)N[C@@H](Cc1ccccc1)[C@@H](O)C[C@@H](Cc1ccccc1)C(=O)NCCc1ccccc1` yielded an IC50 of 2800 nM.

In the case of `CC(C)(C)OC(=O)N[C@@H](Cc1ccccc1)[C@@H](O)C[C@@H](Cc1ccccc1)C(=O)NC1Cc2ccccc2C1`, the midpoint of inhibition, the IC50, lay at 130 nM.

With `CC(C)(C)OC(=O)N[C@@H](Cc1ccccc1)[C@@H](O)C[C@@H](Cc1ccccc1)C(=O)N[C@H]1c2ccccc2C[C@@H]1O` (stereo in doubt; 8), it took 259 nM to reach half-maximal inhibition (IC50).

Turning to `CC(C)(C)OC(=O)N[C@@H](Cc1ccccc1)[C@@H](O)C[C@@H](Cc1ccccc1)C(=O)N[C@H]1c2ccccc2C[C@@H]1O` (stereo in doubt; 10), the midpoint of inhibition, the IC50, lay at 229 nM.
